For the experiment, the target named is Disintegrin and metalloproteinase domain-containing protein 17 (Homo sapiens, UniProt P78536). In words: Inhibition of TACE (unknown origin) using fluorogenic LAQAVRSSSR peptide as a substrate by fluorometric assay.

The IC50 is the concentration that inhibits the measured activity by half.

SMILES strings stand for the structures.

Chain of Disintegrin and metalloproteinase domain-containing protein 17 (P78536 whole entry, the tested form may be a part): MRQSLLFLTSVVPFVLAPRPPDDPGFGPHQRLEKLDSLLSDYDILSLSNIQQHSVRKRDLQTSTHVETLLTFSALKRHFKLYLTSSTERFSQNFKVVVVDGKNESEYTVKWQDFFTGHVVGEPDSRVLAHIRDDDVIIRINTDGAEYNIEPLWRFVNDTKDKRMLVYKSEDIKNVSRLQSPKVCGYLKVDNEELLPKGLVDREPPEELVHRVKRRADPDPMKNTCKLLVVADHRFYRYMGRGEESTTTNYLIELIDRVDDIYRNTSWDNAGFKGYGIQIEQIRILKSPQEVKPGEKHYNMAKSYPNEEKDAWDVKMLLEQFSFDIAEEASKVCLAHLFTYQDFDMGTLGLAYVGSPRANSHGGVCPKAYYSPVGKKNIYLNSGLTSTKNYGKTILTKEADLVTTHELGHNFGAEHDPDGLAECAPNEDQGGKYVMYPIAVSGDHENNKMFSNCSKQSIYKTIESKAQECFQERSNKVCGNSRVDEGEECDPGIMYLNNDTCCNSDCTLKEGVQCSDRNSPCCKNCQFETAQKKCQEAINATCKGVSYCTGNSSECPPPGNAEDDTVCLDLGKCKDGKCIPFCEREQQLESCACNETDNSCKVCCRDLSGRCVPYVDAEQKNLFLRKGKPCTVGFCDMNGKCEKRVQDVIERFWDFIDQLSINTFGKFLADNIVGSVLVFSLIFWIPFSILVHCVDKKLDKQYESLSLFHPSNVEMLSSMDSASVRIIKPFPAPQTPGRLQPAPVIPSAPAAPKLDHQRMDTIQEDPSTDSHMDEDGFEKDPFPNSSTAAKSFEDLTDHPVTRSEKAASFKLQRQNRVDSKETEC

`CNC(=O)[C@H](Cc1cccc2c1CCCC2)NC(=O)[C@H](CC(C)C)[C@H](C)C(=O)NO` showed a concentration for half-maximal inhibition (IC50) of 0.3 nM.
In the case of `CC#CCOc1ccc(S(=O)(=O)NC(C)C(=O)NO)cc1` (configuration not stated) it was 4 nM.

Source of the values: ChEMBL document CHEMBL3045769, “Strategy for generation of new TACE inhibitors: pharmacophore and counter pharmacophore modeling to remove non-selective hits” (Med Chem Res, 2011).
